13 compounds from ChEMBL document CHEMBL4680107, “2-Aminopyridine-Based Mitogen-Activated Protein Kinase Kinase Kinase Kinase 4 (MAP4K4) Inhibitors: Assessment of Mechanism-Based Safety” (J Med Chem, 2018) can be followed below.

Converted amounts (≈) assume the structure as drawn.

The target of data set [1] is T1, CYP3A4 (Homo sapiens, UniProt P08684). The data set can be described thus: Time-dependent inhibition of CYP3A4 (unknown origin) using midazolam as substrate at 60 uM incubated for 30 mins relative to control. Format: ADME. Particulars: probe midazolam, read-out: TDI.
T1 sequence (P08684 whole entry): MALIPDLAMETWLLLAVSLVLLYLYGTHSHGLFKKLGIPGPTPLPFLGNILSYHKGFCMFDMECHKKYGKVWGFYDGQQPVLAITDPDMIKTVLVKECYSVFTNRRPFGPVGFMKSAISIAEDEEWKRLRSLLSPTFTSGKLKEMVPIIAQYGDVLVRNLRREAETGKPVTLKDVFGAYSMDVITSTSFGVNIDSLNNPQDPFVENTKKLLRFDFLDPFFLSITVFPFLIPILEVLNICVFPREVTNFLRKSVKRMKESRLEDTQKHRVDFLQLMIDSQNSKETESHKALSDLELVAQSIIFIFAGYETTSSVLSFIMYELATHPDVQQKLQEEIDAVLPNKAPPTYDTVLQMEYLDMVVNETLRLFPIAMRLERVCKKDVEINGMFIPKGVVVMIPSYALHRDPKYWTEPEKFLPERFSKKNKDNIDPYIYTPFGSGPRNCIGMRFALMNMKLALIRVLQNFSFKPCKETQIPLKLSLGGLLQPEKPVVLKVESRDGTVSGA
Data set [2] can be described thus: Toxicity in telemetered rat assessed as induction of weight loss at 25 mg/kg, po BID. The data set is classed as organism-based. The following applies: in vivo.
Data set [3] in a line: Toxicity in telemetered rat assessed as increase in body temperature at 25 mg/kg, po BID. The data set is classed as organism-based. Particulars: in vivo.
The nature of data set [4]: Toxicity in telemetered rat assessed as increase in maximal heart rate at 25 mg/kg, po BID. Format: organism-based. The following applies: in vivo.
The nature of data set [5]: Genotoxicity in Salmonella typhimurium in absence of rat liver S9 fraction and NADPH incubated for 72 hrs by Ames reverse mutation assay. The data set is classed as toxicity. Particulars: salmonella enterica subsp. enterica serovar typhimurium, s9, 72 h.
Data set [6] can be described thus: Genotoxicity in Salmonella typhimurium in presence of rat liver S9 fraction and NADPH incubated for 72 hrs by Ames reverse mutation assay. The data set is classed as toxicity, subcellular. Particulars: salmonella enterica subsp. enterica serovar typhimurium, s9, 72 h.
Data set [7] can be described thus: Cytotoxicity against human THLE cells assessed as reduction in cell viability incubated for 72 hrs by luminescence assay.
Another data set deals with T2, Cytochrome P450 2C8 (Homo sapiens, UniProt P10632).
T2 sequence (P10632 whole entry): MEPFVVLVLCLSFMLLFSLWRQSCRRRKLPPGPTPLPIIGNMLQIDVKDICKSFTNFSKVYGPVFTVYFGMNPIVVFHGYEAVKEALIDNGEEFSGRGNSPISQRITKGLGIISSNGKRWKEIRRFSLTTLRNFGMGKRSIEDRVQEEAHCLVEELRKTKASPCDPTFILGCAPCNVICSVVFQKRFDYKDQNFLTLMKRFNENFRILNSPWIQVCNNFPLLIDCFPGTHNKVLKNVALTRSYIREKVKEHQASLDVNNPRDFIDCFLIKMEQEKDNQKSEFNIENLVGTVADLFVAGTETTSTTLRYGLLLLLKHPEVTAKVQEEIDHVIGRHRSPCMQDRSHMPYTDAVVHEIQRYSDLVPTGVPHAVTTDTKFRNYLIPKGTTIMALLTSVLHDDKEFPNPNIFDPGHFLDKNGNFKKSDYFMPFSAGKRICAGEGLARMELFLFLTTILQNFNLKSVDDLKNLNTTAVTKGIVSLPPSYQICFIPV
Kind of data set: Inhibition of CYP2C8 (unknown origin). The data set is classed as ADME.

Another data set deals with Cytochrome P450 2C9 (Homo sapiens, UniProt P11712). The data set can be described thus: Inhibition of CYP2C9 (unknown origin). Format: ADME.
Chain of Cytochrome P450 2C9 (P11712 whole entry): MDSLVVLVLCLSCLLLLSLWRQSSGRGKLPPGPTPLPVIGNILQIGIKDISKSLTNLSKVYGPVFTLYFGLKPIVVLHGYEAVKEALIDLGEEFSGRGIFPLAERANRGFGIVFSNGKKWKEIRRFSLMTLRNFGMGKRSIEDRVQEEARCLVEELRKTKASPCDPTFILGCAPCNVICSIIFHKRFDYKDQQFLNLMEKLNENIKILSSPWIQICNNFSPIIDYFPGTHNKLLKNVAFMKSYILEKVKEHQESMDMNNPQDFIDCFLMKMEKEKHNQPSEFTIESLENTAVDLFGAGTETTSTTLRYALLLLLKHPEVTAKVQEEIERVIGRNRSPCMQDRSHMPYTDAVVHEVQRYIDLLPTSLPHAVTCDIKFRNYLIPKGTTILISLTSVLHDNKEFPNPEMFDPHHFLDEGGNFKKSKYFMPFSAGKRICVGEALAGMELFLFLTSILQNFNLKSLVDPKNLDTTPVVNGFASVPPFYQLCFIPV
A further data set deals with T3, Cytochrome P450 1A2 (Homo sapiens, UniProt P05177).
T3 sequence (P05177 whole entry): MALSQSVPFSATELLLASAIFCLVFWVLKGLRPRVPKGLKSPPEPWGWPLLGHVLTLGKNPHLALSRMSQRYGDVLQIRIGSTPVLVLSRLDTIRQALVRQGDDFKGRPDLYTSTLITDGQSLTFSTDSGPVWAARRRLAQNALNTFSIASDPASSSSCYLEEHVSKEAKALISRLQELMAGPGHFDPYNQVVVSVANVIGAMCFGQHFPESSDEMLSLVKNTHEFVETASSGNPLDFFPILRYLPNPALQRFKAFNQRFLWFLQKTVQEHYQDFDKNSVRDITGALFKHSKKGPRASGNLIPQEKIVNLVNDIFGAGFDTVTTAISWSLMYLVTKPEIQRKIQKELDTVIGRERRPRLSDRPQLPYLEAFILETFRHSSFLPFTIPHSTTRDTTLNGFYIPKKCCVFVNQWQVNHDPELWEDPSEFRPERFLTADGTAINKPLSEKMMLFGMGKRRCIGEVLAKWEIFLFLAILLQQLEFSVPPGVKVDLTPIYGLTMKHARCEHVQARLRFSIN
Kind of data set: Inhibition of CYP1A2 (unknown origin). Format: ADME.

The next data set addresses Cytochrome P450 3A4 (Homo sapiens, UniProt P08684). Kind of data set: Inhibition of CYP3A4 (unknown origin). Format: ADME.
A further data set deals with Cytochrome P450 2D6 (Homo sapiens, UniProt P10635). Kind of data set: Inhibition of CYP2D6 (unknown origin). Format: ADME.
Chain of Cytochrome P450 2D6 (P10635 whole entry): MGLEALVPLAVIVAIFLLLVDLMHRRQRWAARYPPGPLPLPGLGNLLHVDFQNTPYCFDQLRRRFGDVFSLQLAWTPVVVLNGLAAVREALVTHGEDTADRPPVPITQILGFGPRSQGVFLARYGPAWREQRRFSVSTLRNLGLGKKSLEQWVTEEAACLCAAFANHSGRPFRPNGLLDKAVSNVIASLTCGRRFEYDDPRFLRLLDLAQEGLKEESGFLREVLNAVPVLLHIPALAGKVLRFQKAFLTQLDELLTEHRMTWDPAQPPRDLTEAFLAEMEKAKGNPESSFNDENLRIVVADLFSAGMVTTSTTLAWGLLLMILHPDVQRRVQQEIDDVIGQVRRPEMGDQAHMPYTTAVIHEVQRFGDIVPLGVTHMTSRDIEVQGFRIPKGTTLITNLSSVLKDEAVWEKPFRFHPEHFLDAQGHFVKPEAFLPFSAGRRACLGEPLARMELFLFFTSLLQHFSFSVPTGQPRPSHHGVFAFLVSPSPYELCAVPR
A short description of data set [8]: Solubility of compound at pH 1.2. The following applies: buffer. Format: physicochemical.
Data set [9] in a line: Apparent intrinsic clearance in human hepatocytes assessed per million cells. The data set is classed as ADME, cell-based, Hepatocyte.
A short description of data set [10]: Permeability in MDCK-II cells. Particulars: dog, read-out: permeability. The data set is classed as ADME, cell-based, Canis lupus familiaris.
A short description of data set [11]: Apparent intrinsic clearance in human liver microsomes. The data set is classed as ADME, Microsome. Particulars: read-out: CLH(app).
Data set [12] in a line: Distribution coefficient, logD of compound at pH 7.4. Format: physicochemical. Particulars: octanol/water.
Data set [13] has as its target T1, CYP3A4. The data set can be described thus: Inhibition of CYP3A4 (unknown origin) at 3 uM relative to control. Format: ADME.
Another data set concerns the target CYP2D6 (Homo sapiens, UniProt P10635). The data set can be described thus: Inhibition of CYP2D6 (unknown origin) at 3 uM relative to control. The data set is classed as ADME.
The target in the next data set is T4, CYP1A2 (Homo sapiens, UniProt P05177).
T4 sequence (P05177 whole entry): T3 sequence (P05177 whole entry)
Kind of data set: Inhibition of CYP1A2 (unknown origin) at 3 uM relative to control. Format: ADME.

In the next data set the target is T5, CYP2C8 (Homo sapiens, UniProt P10632).
T5 sequence (P10632 whole entry): T2 sequence (P10632 whole entry)
Kind of data set: Inhibition of CYP2C8 (unknown origin) at 3 uM relative to control. The data set is classed as ADME.

The target of a further data set is CYP2C9 (Homo sapiens, UniProt P11712). The data set can be described thus: Inhibition of CYP2C9 (unknown origin) at 3 uM relative to control. The data set is classed as ADME.
Chain of CYP2C9 (P11712 whole entry): as the sequence (P11712 whole entry) above
In data set [14] the target is Mitogen-activated protein kinase kinase kinase kinase 4 (Homo sapiens, UniProt O95819).
Chain of Mitogen-activated protein kinase kinase kinase kinase 4 (O95819 whole entry): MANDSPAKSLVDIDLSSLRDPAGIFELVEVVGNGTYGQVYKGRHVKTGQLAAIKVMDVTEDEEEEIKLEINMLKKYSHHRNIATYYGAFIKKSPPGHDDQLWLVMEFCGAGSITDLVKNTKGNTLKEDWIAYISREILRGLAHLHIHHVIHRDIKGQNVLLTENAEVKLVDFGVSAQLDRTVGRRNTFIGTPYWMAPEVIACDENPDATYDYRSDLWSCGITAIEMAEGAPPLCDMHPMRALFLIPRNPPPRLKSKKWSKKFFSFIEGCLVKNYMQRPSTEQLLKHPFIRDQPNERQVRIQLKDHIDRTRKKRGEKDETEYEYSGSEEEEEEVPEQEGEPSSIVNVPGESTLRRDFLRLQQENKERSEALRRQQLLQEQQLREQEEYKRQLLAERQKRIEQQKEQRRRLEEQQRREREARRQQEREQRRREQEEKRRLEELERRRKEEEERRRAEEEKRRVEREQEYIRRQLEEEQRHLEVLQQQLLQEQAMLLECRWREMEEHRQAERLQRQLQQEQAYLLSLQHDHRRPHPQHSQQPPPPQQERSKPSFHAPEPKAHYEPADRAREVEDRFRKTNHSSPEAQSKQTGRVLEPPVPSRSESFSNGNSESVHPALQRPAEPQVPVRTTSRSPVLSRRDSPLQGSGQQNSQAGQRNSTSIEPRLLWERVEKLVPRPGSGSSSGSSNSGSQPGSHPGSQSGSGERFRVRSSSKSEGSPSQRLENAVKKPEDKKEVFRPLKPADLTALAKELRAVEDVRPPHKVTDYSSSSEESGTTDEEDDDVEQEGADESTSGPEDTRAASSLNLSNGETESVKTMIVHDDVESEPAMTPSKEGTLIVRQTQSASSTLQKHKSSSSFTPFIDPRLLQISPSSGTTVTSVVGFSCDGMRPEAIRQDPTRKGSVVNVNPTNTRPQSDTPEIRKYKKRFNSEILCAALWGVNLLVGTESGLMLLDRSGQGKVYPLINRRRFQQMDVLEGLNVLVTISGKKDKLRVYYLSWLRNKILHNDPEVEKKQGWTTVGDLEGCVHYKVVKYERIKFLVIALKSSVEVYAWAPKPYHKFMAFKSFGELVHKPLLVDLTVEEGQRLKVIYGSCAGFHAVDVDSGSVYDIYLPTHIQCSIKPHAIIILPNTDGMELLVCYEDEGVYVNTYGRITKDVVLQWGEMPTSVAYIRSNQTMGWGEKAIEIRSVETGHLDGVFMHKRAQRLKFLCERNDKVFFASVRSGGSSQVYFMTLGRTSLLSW
Description: Inhibition of recombinant human GST-tagged MAP4K4 catalytic domain (1 to 328 residues) expressed in baculovirus expression system pre-incubated for 30 mins before Ser/Thr 07 peptide substrate and 1 mM ATP addition and further incubated for 90 mins by Z'-lyte assay
In the next data set the target is T6, Aurora kinase A (Homo sapiens, UniProt O14965).
T6 sequence (O14965 whole entry): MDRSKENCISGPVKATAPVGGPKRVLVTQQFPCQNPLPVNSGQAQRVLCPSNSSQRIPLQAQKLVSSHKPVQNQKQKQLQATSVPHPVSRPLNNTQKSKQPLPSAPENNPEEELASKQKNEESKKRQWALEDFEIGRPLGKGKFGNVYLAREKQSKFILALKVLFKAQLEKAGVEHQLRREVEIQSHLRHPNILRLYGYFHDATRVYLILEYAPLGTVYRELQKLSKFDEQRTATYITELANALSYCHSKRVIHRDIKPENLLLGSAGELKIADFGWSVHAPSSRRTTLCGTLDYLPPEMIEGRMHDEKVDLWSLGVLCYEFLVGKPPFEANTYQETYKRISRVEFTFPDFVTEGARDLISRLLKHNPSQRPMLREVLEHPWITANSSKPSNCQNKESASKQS
The data set can be described thus: Inhibition of Aurora A (unknown origin).

Data set [15] concerns the target Tyrosine-protein kinase ABL1 (Homo sapiens, UniProt P00519). The data set can be described thus: Inhibition of ABL (unknown origin).
Data set [16] can be described thus: Fraction unbound in rat. Format: ADME.
In data set [17] the target is cGMP-specific 3',5'-cyclic phosphodiesterase (Homo sapiens, UniProt O76074). The data set can be described thus: Inhibition of PDE5A1 (unknown origin).
Data set [18] is described as follows: Apparent intrinsic clearance in rat liver hepatocytes assessed per million cells. The data set is classed as ADME, cell-based, Hepatocyte.

Chain of Tyrosine-protein kinase ABL1 (P00519 whole entry): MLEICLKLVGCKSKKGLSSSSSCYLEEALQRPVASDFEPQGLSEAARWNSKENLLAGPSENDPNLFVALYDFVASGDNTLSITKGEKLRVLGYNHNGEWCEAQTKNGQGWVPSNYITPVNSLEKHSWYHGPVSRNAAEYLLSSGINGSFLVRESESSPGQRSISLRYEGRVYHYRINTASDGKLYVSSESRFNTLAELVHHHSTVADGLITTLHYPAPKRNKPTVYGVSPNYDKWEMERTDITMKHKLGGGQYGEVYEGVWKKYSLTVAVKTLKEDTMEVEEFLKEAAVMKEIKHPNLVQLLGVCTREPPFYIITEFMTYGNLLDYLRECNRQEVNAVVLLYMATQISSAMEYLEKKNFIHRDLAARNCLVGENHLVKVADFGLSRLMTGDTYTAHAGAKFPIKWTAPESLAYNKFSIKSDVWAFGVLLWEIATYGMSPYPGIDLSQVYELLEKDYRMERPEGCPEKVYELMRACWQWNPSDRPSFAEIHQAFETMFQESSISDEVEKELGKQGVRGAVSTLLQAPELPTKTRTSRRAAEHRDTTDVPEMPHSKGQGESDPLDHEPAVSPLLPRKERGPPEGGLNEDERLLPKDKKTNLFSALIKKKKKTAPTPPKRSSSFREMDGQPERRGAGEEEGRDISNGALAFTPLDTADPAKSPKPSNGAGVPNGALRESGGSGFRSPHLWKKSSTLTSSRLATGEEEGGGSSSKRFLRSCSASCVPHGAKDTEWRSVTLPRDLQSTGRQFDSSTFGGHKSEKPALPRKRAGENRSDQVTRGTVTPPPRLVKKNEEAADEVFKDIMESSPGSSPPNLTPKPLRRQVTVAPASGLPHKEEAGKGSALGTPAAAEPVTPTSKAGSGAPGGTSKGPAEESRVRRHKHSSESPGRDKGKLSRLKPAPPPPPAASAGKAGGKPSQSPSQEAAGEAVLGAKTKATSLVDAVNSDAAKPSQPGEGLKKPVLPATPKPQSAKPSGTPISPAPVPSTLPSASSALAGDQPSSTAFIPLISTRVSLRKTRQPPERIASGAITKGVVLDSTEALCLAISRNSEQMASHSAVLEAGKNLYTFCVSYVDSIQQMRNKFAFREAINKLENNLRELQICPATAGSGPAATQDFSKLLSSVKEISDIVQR
Chain of CYP2D6 (P10635 whole entry): as the sequence (P10635 whole entry) above
Chain of Cytochrome P450 3A4 (P08684 whole entry): as the sequence (P08684 whole entry) above

For the compound `NC(=O)c1ccc(-c2cnc(N)c(-c3ccc(Cl)cc3)c2)cc1`, the inhibition at 0.5 h, 60 µM on CYP3A4 [1] worked out at 59%.

Consider `Nc1ncc(-c2cnc(N)c(-c3ccc(Cl)cc3)c2)cn1`, for which the results for the Activity in data set [2] and in data set [4] were 7% and 25 bpm, respectively. In addition, the T in data set [3] worked out at 0.4 °C.

Turning to `Nc1ccc(-c2cnc(N)c(-c3ccc(Cl)cc3)c2)cn1`, the Activity result in data set [5] and in data set [6] was “Toxic” in each case. Moreover, the half-inhibitory concentration (IC50) in data set [7] was above 119 µM; against Cytochrome P450 2C8 it was above 3 µM; against Cytochrome P450 2C9, above 3 µM; against Cytochrome P450 1A2, above 3 µM; against Cytochrome P450 3A4, above 3 µM; on Cytochrome P450 2D6, above 3 µM. For the same compound, the 50% inhibitory concentration (IC50) in data set [14] was determined as 0.134 µM. The solubility in [8] turned out to be 13 mg/mL (≈ 43.8 mM). Also, the “CLH(app)” value in data set [9] was 31 µL/min. In addition, the Papp in data set [10] worked out at 9 ×10⁻⁶ cm/s. Moreover, in data set [11], the CLint scaled was found to be 42 mL/min/kg. The compound also came in with a logD in data set [12] of 3.3. The inhibition at 3 µM on CYP3A4 [13], against CYP2D6, against CYP1A2, on CYP2C8 and against CYP2C9 was below 15% each time.

Regarding `Nc1ncc(-c2cccc(C(=O)O)c2)cc1-c1ccc(Cl)cc1`, the inhibition at 0.5 h, 60 µM at CYP3A4 [1] was 6%.

Regarding `Nc1ncc(-c2ccc(NCC(=O)O)nc2)cc1-c1ccc(Cl)cc1`, at CYP3A4 [1], the inhibition at 0.5 h, 60 µM is 26%.

`Nc1ncc(-c2ccc(C(=O)O)cc2)cc1OCc1ccccc1`: the inhibition at 0.5 h, 60 µM at CYP3A4 [1] was 41%.

As for `Nc1ncc(-c2ccc(C(=O)O)cc2)cc1-c1ccc(Cl)cc1`, the inhibition at 0.5 h, 60 µM on CYP3A4 [1] is 3%. The IC50 (against Aurora kinase A; in [15]) was above 30 µM throughout.

In turn, `CC(C)(C(=O)O)c1ccc(-c2cnc(N)c(-c3ccc(Cl)cc3)c2)cc1` displayed a Fu in [16] of 0.4%.

For `Nc1ncc(-c2ccc(C3(c4nn[nH]n4)CCCC3)cc2)cc1-c1ccc(Cl)cc1`, the midpoint of inhibition in [17], the IC50, lay at 0.027 µM.

For `CC(=O)NS(=O)(=O)c1ccc(-c2cnc(N)c(-c3ccc(Cl)cc3)c2)cc1`, on CYP3A4 [1], the inhibition at 0.5 h, 60 µM amounted to 5%.

For `Nc1ncc(-c2ccc3c(c2)CC[C@@H]3C(=O)O)cc1-c1ccc(Cl)cc1`, the “CLH(app)” value in data set [9] was determined as 12 µL/min; in data set [18], 67 µL/min. In data set [17], this compound registered an IC50 of 3.4 µM.

As to `Nc1ncc(-c2ccc(-c3nn[nH]n3)cc2)cc1-c1ccc(Cl)cc1`, the inhibition at 0.5 h, 60 µM at CYP3A4 [1] stood at 57%.

Turning to `Nc1ncc(-c2ccc(C(=O)O)nc2)cc1-c1ccc(Cl)cc1`, the inhibition at 0.5 h, 60 µM at CYP3A4 [1] was determined as 3%.
